Experimental data from US8309353B2, “Method for induction of differentiation of ES cell” (Kumamoto University, priority 2007, dated 2012).

B1: OsM: recombinant human oncostatin M (Sigma) (protein, UniProt P13725 26-221, looked up)
Oncostatin-M: AAIGSCSKEYRVLLGQLQKQTDLMQDTSRLLDPYIRIQGLDVPKLREHCRERPGAFPSEETLRGLGRRGFLQTLNATLGCVLHRLADLEQRLPKAQDLERSGLNIEDLEKLQMARPNILGLRNNIYCMAQLLDNSDTAEPTKAGRGASQPPTPTPASDAFQRKLEGCRFLHGYHRFMHSVGRVFSKWGESPNRSRR

How the values were obtained:
mouse ES cells (SK7) = assay: Immunohistochemical analysis of AFP-, Pdx1/GFP- and Alb-expressing cells in mouse ES cells differentiated on M15 cells; format: cell-based; settings: for number of AFP-positive cells: factor added after d4, 10% KSR, 2,000 mg/L glucose (FIG. 3); for AFP expression, one factor added: one factor added d4 to d8, KSR, glucose 2,000 mg/L (FIG. 2B)
Procedure: A previously reported SK7 cell line (mouse ES cells) having a Pdx1 promoter-derived GFP reporter-introduced gene was used (International Publication WO2006/126574). The SK7 ES cells were maintained on mouse embryonic fibroblasts (MEF), using a Glasgow minimum essential medium (Invitrogen) supplemented with 1,000 units/mL leukemia inhibitory factor (Chemicon), 15% KSR (knockout serum replacement; Gibco), 1% fetal bovine serum (FBS; Hyclone), 100 μM nonessential amino acid (Invitrogen), 2 mM L-glutamine (Invitrogen), 1 mM sodium pyruvate (Invitrogen), 50 units/mL penicillin, 50 μg/mL streptomycin (Invitrogen) and 100 μM β-mercaptoethanol.
Thereafter, the ES cells (the number of cells: 5,000 and 20,000, respectively) were inoculated on a 24-well or 6-well plate (Nunc) that had previously been coated with the M15 cells. Subsequently, using DMEM containing 100 μM nonessential amino acid, 2 mM L-glutamine, 50 units/mL penicillin, 50 μg/mL streptomycin and 100 μM β-mercaptoethanol, the cells were cultured in a differentiation culture solution containing 10% FBS and 4,500 mg/L glucose from the initial day of culture (d0) to day 4 (d4), and after d4, the cells were then cultured in another culture solution containing 10% KSR and 2,000 mg/L glucose. Thus, the cells were cultured for a maximum of 30 days. In order to induce the […] endoderm, activin A (20 ng/mL) and bFGF (50 ng/mL) were added during the period from d0 to d4. Moreover, HGF (10 ng/mL) and dexamethasone (1 μM) were added during the period from d4 to d30. The culture solution was replaced with a fresh one containing a growth factor every two days. The details of such growth factor will be described at the end of the diferentiation section.
Recombinant human activin A (R&D Systems): 20 ng/mL; recombinant human bFGF (Peprotech): 50 ng/mL; recombinant human BMP4 (R&D Systems): 50 ng/mL; SU5402 (Mohammadi, et al., (1997). Science 276, 955-60.) (Calbiochem): 10 μM; recombinant mouse Noggin/Fc Chimera (R&D Systems): 100 ng/mL; recombinant human hepatic cell growth factor (HGF, Peprotech): 10 ng/mL; dexamethasone (Dex, Sigma): 1 μM; recombinant human oncostatin M (OSM, Sigma): 10 ng/mL.
For whole mount immunocytochemical analysis, ES cells were inoculated on 24-well Thennanox coverslips (Nunc). Using TCS-SP2 Spectral Confocal Scanning System (Leica), a confocal image was obtained. Using IX 71 Inverted (Olympus), a phase-contrast image was obtained. The following antibodies were used in detection: mouse anti-GFP (Roche), rabbit anti-α-fetoprotein (AFP, Biomeda), goat anti-albumin (Sigma), fluorescein isothiocyanate (FITC)-labeled Dolichos biflorus agglutinin (DBA) lectin (Sigma), rabbit anti-α-1-anti-trypsin (Sigma), rabbit anti-CYP3A2 (Biomol), rabbit anti-CYP7A1 (Santa Cruz), and mouse anti-Oct3/4 (Santa Cruz). As secondary antibodies, an Alexa568-labeled goat anti-rabbit antibody, donkey anti-goat antibody (Molecular Probes), and an Alexa488-labeled goat anti-mouse antibody, goat anti-rabbit antibody, and donkey anti-goat antibody (Molecular Probes) were used. The cells were subjected to counterstaining using DAPI (Roche). In order to quantify the number of the Afp-expressing cells of FIG. 3B, the region of an Afp-positive stained image was analyzed using Lumina Vision program (Mitani Corporation).

[1] = tested on: mouse ES cell-derived hepatic cells; assay: Albumin secretion analysis by ELISA; format: cell-based
Procedure: The medium was replaced with a fresh one, and 24 hours later, the conditioned medium was recovered. Using Lebis ELISA kit (Shibayagi), albumin secretion was analyzed.
It has been reported that OsM induces maturation of mouse fetal liver cells (Kamiya, A., Kinoshita, T. & Miyajima, A. (2001) Oncostatin M and hepatocyte growth factor induce hepatic maturation via distinct signaling pathways. FEBS Lett 492, 90-94). Thus, the influence of OsM on albumin secretion was analyzed by ELISA. The effect of OsM to enhance albumin secretion was not observed until […].

| Molecule | number of AFP-positive cells (mouse ES cells (SK7)) | AFP expression, one factor added (mouse ES cells (SK7)) | further results |
| --- | --- | --- | --- |
| Cc1c[nH]c(/C=C2\C(=O)Nc3ccccc32)c1CCC(=O)O [SU5402, reference compound] | decreased |  |  |
| HGF: recombinant human hepatic cell growth factor (Peprotech) |  | promoted in the order of Dex>HGF>OsM |  |
| Noggin | almost all AFP-expressing cells disappeared |  |  |
| bFGF: recombinant human bFGF (Peprotech) | increased |  | AFP-expressing cells when bFGF was added to Noggin (mouse ES cells (SK7); in the presence of Noggin, after d4, 10% KSR, 2,000 mg/L glucose (FIG. 3)): recovered |
| B1 |  | promoted in the order of Dex>HGF>OsM | increase of albumin secretion ([1]; d50 and d60, medium with OsM, Dex and HGF versus control medium with only Dex and HGF, 24 hours): 2 times; effect to enhance albumin secretion ([1]; until c40, OsM added to Dex and HGF): not observed |
